Experimental data from patent publication US20230087342A1, “AZEPANE DERIVATIVE” (Nippon Chemiphar Co., Ltd., priority 2019, published 2023).

Each compound was assayed against T1, human κ opioid receptors (Homo sapiens, UniProt P41145) (assay: Opioid receptor function test (Lance Ultra cAMP kit, agonist activity)). Conditions: CHO cells expressing human κ opioid receptors, 10 μM forskolin, 30 minutes.
T1 construct: host or cells: CHO cells
Assay type: cell-based
Description: Opioid Receptor Function Test
The function activity of the compound of the present invention on κ opioid receptors was examined.
Method: Using a Lance Ultra cAMP kit (Perkin Elmer), the examination was performed according to a predetermined method. In evaluation of agonist activity, CHO cells expressing human κ opioid receptors (Catalog No. CT6606, accession No. NM_000912) and a test compound were reacted in an assay buffer (1×HSS, 5 mM HEPES, pH 7.4, 0.5 mM IBMX (isobutylmethyixanthine), 0.1% SA) in the presence of 10 μM forskolin for 30 minutes. Subsequently, a cAMP detection reagent in the kit was added. One hour later, time-resolved fluorescence measurement was performed using an EnVision plate reader (Perkin Elmer). The evaluation of the test compound was performed in a concentration range of 10^−14 to 10^−7 M for the κ opioid receptor function test.

T1 sequence (P41145 whole entry): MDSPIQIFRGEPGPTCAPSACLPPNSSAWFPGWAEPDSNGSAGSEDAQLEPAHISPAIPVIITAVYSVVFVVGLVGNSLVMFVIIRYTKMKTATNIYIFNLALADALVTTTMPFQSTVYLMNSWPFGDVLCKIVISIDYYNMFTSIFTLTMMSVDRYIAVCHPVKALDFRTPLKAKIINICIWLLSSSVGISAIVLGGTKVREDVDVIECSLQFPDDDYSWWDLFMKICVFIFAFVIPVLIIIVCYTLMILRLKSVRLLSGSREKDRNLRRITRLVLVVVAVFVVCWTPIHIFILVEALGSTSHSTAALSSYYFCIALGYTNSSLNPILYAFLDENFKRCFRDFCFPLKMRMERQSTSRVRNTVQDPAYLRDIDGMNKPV

Point of comparison: `Oc1ccc2c(c1)[C@@]13CCN(CCn4nc(C(F)F)cc4C(F)F)CC[C@@]1(O)[C@@H](C2)N(CC1CC1)CC3` [Example 58, (5aS,6R,11bS)-3-(2-(3,5-bis(difluoromethyl)-1H-pyrazol-1-yl)ethyl)-14-(cyclopropylmethyl)-2,3,4,5,6,7-hexahydro-6,11b-(epiminoethano)naphtho[1,2-d]azepine-5a,10(1H)-diol], EC50 0.14 nM. Against it:
- O=C(CN1CCC(F)(F)C1)N1CC[C@]23CCN(CC4CC4)[C@H](Cc4ccc(O)cc42)[C@]3(O)CC1 [Example 181, 1-((5aS,6R,11bR)-14-(cyclopropylmethyl)-5a,10-dihydroxy-1,2,5,5a,6,7-hexahydro-6,11b-(epiminoethano)naphtho[1,2-d]azepin-3(4H)-yl)-2-(3,3-difluoropyrrolidin-1-yl)ethan-1-one] — 2.3-fold higher, 0.32 nM
- CC(C)c1cn(CC(=O)N2CC[C@]34CCN(CC5CC5)[C@H](Cc5ccc(O)cc53)[C@]4(O)CC2)nn1 [Example 165, 1-((5aS,6R,11bR)-14-(cyclopropylmethyl)-5a,10-dihydroxy-1,2,5,5a,6,7-hexahydro-6,11b-(epiminoethano)naphtho[1,2-d]azepin-3(4H)-yl)-2-(4-isopropyl-1H-1,2,3-triazol-1-yl)ethan-1-one] — 2-fold higher, 0.28 nM
- Cc1ccn(CCN2CC[C@]34CCN(CC5CC5)[C@H](Cc5ccc(O)cc53)[C@]4(O)CC2)c1 [Example 166, (5aS,6R,11bS)-14-(cyclopropylmethyl)-3-(2-(3-methyl-1H-pyrrol-1-yl)ethyl)-2,3,4,5,6,7-hexahydro-6,11b-(epiminoethano)naphtho[1,2-d]azepine-5a,10(1H)-diol] — 2.2-fold higher, 0.31 nM
- Oc1ccc2c(c1)[C@@]13CCN(CCN4CCc5ccccc54)CC[C@@]1(O)[C@@H](C2)N(CC1CC1)CC3 [Example 126, (5aS,6R,11bS)-14-(cyclopropylmethyl)-3-(2-(indolin-1-yl)ethyl)-2,3,4,5,6,7-hexahydro-6,11b-(epiminoethano)naphtho[1,2-d]azepine-5a,10(1H)-diol] — 5.3-fold higher, 0.74 nM
- (5aS,6R,11bS)-14-(cyclopropylmethyl)-3-((1R,3R)-3-(4-methyl-1H-pyrazol-1-yl)cyclopentyl)-2,3,4,5,6,7-hexahydro-6,11b-(epiminoethano)naphtho[1,2-d]azepine-5a,10(1H)-diol and (5aS,6R,11bS)-14-(cyclopropylmethyl)-3-((1S,3S)-3-(4-methyl-1H-pyrazol-1-yl)cyclopentyl)-2,3,4,5,6,7-hexahydro-6,11b-(epiminoethano)naphtho[1,2-d]azepine-5a,10(1H)-diol [Example 237] — 2.1-fold higher, 0.29 nM
- Cn1nc(CCN2CC[C@]34CCN(CC5CC5)[C@H](Cc5ccc(O)cc53)[C@]4(O)CC2)cc1C(F)(F)F [Example 37, (5aS,6R,11bS)-14-(cyclopropylmethyl)-3-(2-(1-methyl-5-(trifluoromethyl)-1H-pyrazol-3-yl)ethyl)-2,3,4,5,6,7-hexahydro-6,11b-(epiminoethano)naphtho[1,2-d]azepine-5a,10(1H)-diol] — 2.7-fold lower, 0.051 nM
- Cc1ccn(CCN2CC[C@]34CCN(CC5CC5)[C@H](Cc5ccc(O)cc53)[C@]4(O)CC2)n1 [Example 47, (5aS,6R,11bS)-14-(cyclopropylmethyl)-3-(2-(3-methyl-1H-pyrazol-1-yl)ethyl)-2,3,4,5,6,7-hexahydro-6,11b-(epiminoethano)naphtho[1,2-d]azepine-5a,10(1H)-diol] — 1.6-fold higher, 0.23 nM
- Cc1cccnc1CCN1CC[C@]23CCN(CC4CC4)[C@H](Cc4ccc(O)cc42)[C@]3(O)CC1 [Example 102, (5aS,6R,11bS)-14-(cyclopropylmethyl)-3-(2-(3-methylpyridin-2-yl)ethyl)-2,3,4,5,6,7-hexahydro-6,11b-(epiminoethano)naphtho[1,2-d]azepine-5a,10(1H)-diol] — within 1.5-fold, 0.13 nM
- Cc1cnn(CCN2CC[C@]34CCN(CC5CC5(F)F)[C@H](Cc5ccc(O)cc53)[C@]4(O)CC2)c1 (stereo partly drawn) [Example 218, (5aS,6R,11bS)-14-((2,2-difluorocyclopropyl)methyl)-3-(2-(4-methyl-1H-pyrazol-1-yl)ethyl)-2,3,4,5,6,7-hexahydro-6,11b-(epiminoethano)naphtho[1,2-d]azepine-5a,10(1H)-diol] — within 1.5-fold, 0.16 nM
- Oc1ccc2c(c1)[C@@]13CCN(CCn4nccn4)CC[C@@]1(O)[C@@H](C2)N(CC1CC1)CC3 [Example 66, (5aS,6R,11bS)-3-(2-(2H-1,2,3-triazol-2-yl)ethyl)-14-(cyclopropylmethyl)-2,3,4,5,6,7-hexahydro-6,11b-(epiminoethano)naphtho[1,2-d]azepine-5a,10(1H)-diol] — the same, 0.14 nM
- O=C(CCc1nccs1)N1CC[C@]23CCN(CC4CC4)[C@H](Cc4ccc(O)cc42)[C@]3(O)CC1 [Example 210, 1-((5aS,6R,11bR)-14-(cyclopropylmethyl)-5a,10-dihydroxy-1,2,5,5a,6,7-hexahydro-6,11b-(epiminoethano)naphtho[1,2-d]azepin-3(4H)-yl)-3-(thiazol-2-yl)propan-1-one] — 5.1-fold higher, 0.72 nM
- Cc1ccnc(CCN2CC[C@]34CCN(CC5CC5)[C@H](Cc5ccc(O)cc53)[C@]4(O)CC2)c1 [Example 105, (5aS,6R,11bS)-14-(cyclopropylmethyl)-3-(2-(4-methylpyridin-2-yl)ethyl)-2,3,4,5,6,7-hexahydro-6,11b-(epiminoethano)naphtho[1,2-d]azepine-5a,10(1H)-diol] — 1.6-fold lower, 0.088 nM
- Oc1ccc2c(c1)[C@@]13CCN(CCc4n[nH]c5ccccc45)CC[C@@]1(O)[C@@H](C2)N(CC1CC1)CC3 [Example 112, (5aS,6R,11bS)-3-(2-(1H-indazol-3-yl)ethyl)-14-(cyclopropylmethyl)-2,3,4,5,6,7-hexahydro-6,11b-(epiminoethano)naphtho[1,2-d]azepine-5a,10(1H)-diol] — 3.8-fold lower, 0.037 nM
- Oc1ccc2c(c1)[C@@]13CCN(CCN4CCCCC4)CC[C@@]1(O)[C@@H](C2)N(CC1CC1)CC3 [Example 130, (5aS,6R,11bS)-14-(cyclopropylmethyl)-3-(2-(piperidin-1-yl)ethyl)-2,3,4,5,6,7-hexahydro-6,11b-(epiminoethano)naphtho[1,2-d]azepine-5a,10(1H)-diol] — 2.6-fold higher, 0.36 nM
- Cc1ccnn1CCN1CC[C@]23CCN(CC4CC4)[C@H](Cc4ccc(O)cc42)[C@]3(O)CC1 [Example 52, (5aS,6R,11bS)-14-(cyclopropylmethyl)-3-(2-(5-methyl-1H-pyrazol-1-yl)ethyl)-2,3,4,5,6,7-hexahydro-6,11b-(epiminoethano)naphtho[1,2-d]azepine-5a,10(1H)-diol] — within 1.5-fold, 0.15 nM
- Oc1ccc2c(c1)[C@@]13CCN(CCn4cc(F)cn4)CC[C@@]1(O)[C@@H](C2)N(CC1CC1)CC3 [Example 184, (5aS,6R,11bS)-14-(cyclopropylmethyl)-3-(2-(4-fluoro-1H-pyrazol-1-yl)ethyl)-2,3,4,5,6,7-hexahydro-6,11b-(epiminoethano)naphtho[1,2-d]azepine-5a,10(1H)-diol] — within 1.5-fold, 0.095 nM
- O=C(Cn1cc(Br)cn1)N1CC[C@]23CCN(CC4CC4)[C@H](Cc4ccc(O)cc42)[C@]3(O)CC1 [Example 60, 2-(4-bromo-1H-pyrazol-1-yl)-1-((5aS,6R,11bR)-14-(cyclopropylmethyl)-5a,10-dihydroxy-1,2,5,5a,6,7-hexahydro-6,11b-(epiminoethano)naphtho[1,2-d]azepin-3(4H)-yl)ethan-1-one] — 2.5-fold lower, 0.056 nM
- Oc1ccc2c(c1)[C@@]13CCN(CCN4CCC(F)(F)C4)CC[C@@]1(O)[C@@H](C2)N(CC1CC1)CC3 [Example 182, (5aS,6R,11bS)-14-(cyclopropylmethyl)-3-(2-(3,3-difluoropyrrolidin-1-yl)ethyl)-2,3,4,5,6,7-hexahydro-6,11b-(epiminoethano)naphtho[1,2-d]azepine-5a,10(1H)-diol] — 1.6-fold higher, 0.22 nM
- Cc1cnn(C2CC(N3CC[C@]45CCN(CC6CC6)[C@H](Cc6ccc(O)cc64)[C@]5(O)CC3)C2)c1 (single isomer, unassigned) [Example 227 (II)] — within 1.5-fold, 0.16 nM
- Cc1cnn(CCN2CC[C@]34CCN(CC5CC5)[C@H](Cc5ccc(OC(=O)C(C)(C)C)cc53)[C@]4(O)CC2)c1 [Example 238, (5aS,6R,11bS)-14-(cyclopropylmethyl)-5a-hydroxy-3-(2-(4-methyl-1H-pyrazol-1-yl)ethyl)-1,2,3,4,5,5a,6,7-octahydro-6,11b-(epiminoethano)naphtho[1,2-d]azepin-10-yl pivalate] — 3.2-fold higher, 0.45 nM
- Oc1ccc2c(c1)[C@@]13CCN(CCc4cccc(C(F)(F)F)n4)CC[C@@]1(O)[C@@H](C2)N(CC1CC1)CC3 [Example 88, (5aS,6R,11bS)-14-(cyclopropylmethyl)-3-(2-(6-(trifluoromethyl)pyridin-2-yl)ethyl)-2,3,4,5,6,7-hexahydro-6,11b-(epiminoethano)naphtho[1,2-d]azepine-5a,10(1H)-diol] — 5.4-fold higher, 0.75 nM
- Cc1cc(CC(=O)N2CC[C@]34CCN(CC5CC5)[C@H](Cc5cc(C)c(O)cc53)[C@]4(O)CC2)ns1 [Example 323, 1-((5aS,6R,11bR)-14-(cyclopropylmethyl)-5a,10-dihydroxy-9-methyl-1,2,5,5a,6,7-hexahydro-6,11b-(epiminoethano)naphtho[1,2-d]azepin-3(4H)-yl)-2-(5-methylisothiazol-3-yl)ethan-1-one] — within 1.5-fold, 0.18 nM
- O=C(Cn1nccc1O)N1CC[C@]23CCN(CC4CC4)[C@H](Cc4ccc(O)cc42)[C@]3(O)CC1 [Example 214, 1-((5aS,6R,11bR)-14-(cyclopropylmethyl)-5a,10-dihydroxy-1,2,5,5a,6,7-hexahydro-6,11b-(epiminoethano)naphtho[1,2-d]azepin-3(4H)-yl)-2-(5-hydroxy-1H-pyrazol-1-yl)ethan-1-one] — within 1.5-fold, 0.13 nM
